Structures can show the parent of a compound that is named as a salt.
Tests used:
Experiment in all cases: IC50 (viability, PrestoBlue) (log10 nM)
Conditions in all cases: exposure time: 72 h
[1] = system: murine normal gastric organoid
Experimental: (§1)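 Murine gastric corpus organoids (normal uninduced; RAS-activated Kras G12D/Tp53 R172H; diffuse Cdh1/Apc loss; WNT-activated Apc loss/Tp53 R172H) were seeded in Matrigel into pre-spotted 384-well plates. The plates held a 196-compound library at 6.7 nM to 25,004 nM (9 doses) and were incubated 72 h. Viability was read by PrestoBlue fluorescence (560/590 nm). IC50 came from non-linear regression (Prism), reported as log10 IC50 in nM, mean of 3 passages x 2 wells.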

[2] = system: murine gastric organoid RAS-activated (Kras G12D; Tp53 R172H)
Experimental: as §1

[3] = system: murine gastric organoid diffuse (Cdh1 fl/fl; Apc fl/fl)
Experimental: as §1

[4] = system: murine gastric organoid WNT-activated (Apc fl/fl; Tp53 R172H)
Experimental: as §1

Row | Compound | IC50 (log10 nM) [1] | IC50 (log10 nM) [2] | IC50 (log10 nM) [3] | IC50 (log10 nM) [4]
1 | O=c1[nH]c(=O)n([C@H]2C[C@H](O)[C@@H](CO)O2)cc1F [Floxuridine] | 2.96 | 3.16 | 3.8 | 1.61
2 | COc1ccc(/C=C\c2cc(OC)c(OC)c(OC)c2)cc1OP(=O)(O)O [Fosbretabulin disodium] | < 0.826 | 2.23 | 2.47 | 1.85
3 | CN(C)c1ccccc1CN1CCCN(Cc2ccccc2N(C)C)C1c1ccncc1 [GANT-61] | 1.27 | 1.22 | 2.53 | 2.6
4 | Cn1nccc1Nc1nccc(-c2ccn([C@H](CO)c3ccc(Cl)c(F)c3)c(=O)c2)n1 [GDC-0994] | 3.71 | 4.35 | 3.23 | 2.88
5 | CC(C)c1cc(-c2n[nH]c(=O)n2-c2ccc3c(ccn3C)c2)c(O)cc1O [Ganetespib] | 1.59 | 1.59 | 1.5 | < 0.826
6 | COc1cc2ncnc(Nc3ccc(F)c(Cl)c3)c2cc1OCCCN1CCOCC1 [Gefitinib] | 1.98 | 4.06 | 2.65 | 2.38
7 | Nc1ccn([C@@H]2O[C@H](CO)[C@@H](O)C2(F)F)c(=O)n1 [Gemcitabine] | 1.23 | 1.54 | 1.53 | 1.74
8 | COC(=O)C[C@](O)(CCCC(C)(C)O)C(=O)O[C@@H]1C(OC)=C[C@]23CCCN2CCc2cc4c(cc2[C@H]13)OCO4 [Homoharringtonine] | 1.91 | 1.56 | 1.82 | 0.956
9 | C=CCc1ccc(O)c(-c2ccc(O)c(CC=C)c2)c1 [Honokiol] | 3.97 | 4.12 | 4.28 | 3.87
10 | CC(C)n1nc(-c2ccc3oc(N)nc3c2)c2c(N)ncnc21 [INK 128] | 1.21 | 1.45 | 1.42 | > 4.4
11 | C=CC(=O)N1CCC[C@@H](n2nc(-c3ccc(Oc4ccccc4)cc3)c3c(N)ncnc32)C1 [Ibrutinib] | 2.2 | 4.23 | 2.53 | 2.48
12 | CC(=O)[C@]1(O)Cc2c(O)c3c(c(O)c2[C@@H](O[C@H]2C[C@H](N)[C@H](O)[C@H](C)O2)C1)C(=O)c1ccccc1C3=O [Idarubicin hydrochloride] | 1.1 | < 0.826 | 1.41 | 0.851
13 | CC(C)C[C@H](NC(=O)CNC(=O)c1cc(Cl)ccc1Cl)B(O)O [Ixazomib (MLN9708)] | 2.8 | 2.12 | 2.51 | 2.6
14 | Cc1cc(Nc2ncc(Cl)c(Nc3ccccc3S(=O)(=O)C(C)C)n2)c(OC(C)C)cc1C1CCNCC1 [LDK378] | 2.84 | 3.08 | 2.8 | 2.55
15 | COC(=O)N[C@@H](C)CNc1nccc(-c2cn(C(C)C)nc2-c2cc(Cl)cc(NS(C)(=O)=O)c2F)n1 [LGX818] | 3.91 | < 0.826 | < 0.826 | 2.62
16 | CS(=O)(=O)CCNCc1ccc(-c2ccc3ncnc(Nc4ccc(OCc5cccc(F)c5)c(Cl)c4)c3c2)o1 [Lapatinib] | 2.54 | 3.12 | 2.84 | 2.43
17 | Cc1ccc(F)c(NC(=O)Nc2ccc(-c3cccc4[nH]nc(N)c34)cc2)c1 [Linifanib] | 3.7 | 3.05 | 4.2 | 3.77
18 | C[C@]1(O)C[C@@H](c2nc(-c3ccc4ccc(-c5ccccc5)nc4c3)c3c(N)nccn32)C1 [Linsitinib] | 2.84 | < 0.826 | 3.68 | 2.69
19 | CNC(=O)[C@@H](NC(=O)[C@H](CC(C)C)[C@H](O)C(=O)NO)C(C)(C)C [Marimastat] | 4.37 | < 0.826 | > 4.4 | 4.02
20 | Cc1ccc(NC(=O)c2ccc(CN3CCN(C)CC3)cc2)cc1Nc1nc(-c2cccnc2)cs1 [Masitinib mesylate] | 3.68 | 2.38 | 4.25 | 3.35
21 | N[C@@H](Cc1ccc(N(CCCl)CCCl)cc1)C(=O)O [Melphalan] | 3.09 | 3.27 | 3.34 | 2.26

Row | Compound | IC50 (log10 nM) [1] | IC50 (log10 nM) [2] | IC50 (log10 nM) [3] | IC50 (log10 nM) [4]
22 | CN(Cc1cnc2nc(N)nc(N)c2n1)c1ccc(C(=O)N[C@@H](CCC(=O)O)C(=O)O)cc1 [Methotrexate] | 3.41 | 3.43 | > 4.4 | 4.36
23 | CO[C@@]12[C@H](COC(N)=O)C3=C(C(=O)C(C)=C(N)C3=O)N1C[C@@H]1N[C@@H]12 [Mitomycin C] | 2.64 | 2.5 | 2.68 | 2.7
24 | O=C1c2c(O)ccc(O)c2C(=O)c2c(NCCNCCO)ccc(NCCNCCO)c21 [Mitoxantrone dihydrochloride] | 2.13 | 2.2 | 2.41 | 3.38
25 | CCOc1cc2ncc(C#N)c(Nc3ccc(OCc4ccccn4)c(Cl)c3)c2cc1NC(=O)/C=C/CN(C)C [Neratinib] | 2.48 | > 4.4 | 3.13 | 2.94
26 | Cc1sc2c(c1C)C(c1ccc(Cl)cc1)=N[C@@H](CC(=O)Nc1ccc(O)cc1)c1nnc(C)n1-2 [OTX-015] | 2.22 | 3.11 | 2.47 | 2.85
27 | COC1=CC(c2cc3ccccc3[nH]2)=N/C1=C\c1[nH]c(C)cc1C [Obatoclax] | 2.31 | 2.81 | 3.06 | 2.26
28 | C=CC(=O)Nc1cc(Nc2nccc(-c3cn(C)c4ccccc34)n2)c(OC)cc1N(C)CCN(C)C [Osimertinib] | 2.73 | 3.89 | 3.05 | 2.46
29 | C1=N/C2=N/c3ccc(OCCN4CCCC4)c(c3)COC/C=C/COCc3cccc(c3)C(=C1)N2 [Pacritinib] | 3.23 | 3.76 | 3.48 | 2.91
30 | CC(=O)c1c(C)c2cnc(Nc3ccc(N4CCNCC4)cn3)nc2n(C2CCCC2)c1=O [Palbociclib] | 4.24 | 4.07 | 4.37 | 4.13
31 | Cc1[nH]c2ccccc2c1CCNCc1ccc(/C=C/C(=O)NO)cc1 [Panobinostat] | 3.17 | 1.81 | 2.82 | 3.02
32 | Cc1ccc(Nc2nccc(N(C)c3ccc4c(C)n(C)nc4c3)n2)cc1S(N)(=O)=O [Pazopanib] | 4.21 | > 4.4 | 1.42 | > 4.4
33 | CCCCCCCCCCCCCCCCCCOP(=O)([O-])OC1CC[N+](C)(C)CC1 [Perifosine] | < 0.826 | < 0.826 | > 4.4 | 1.16
34 | Cc1ccc(C(=O)Nc2ccc(CN3CCN(C)CC3)c(C(F)(F)F)c2)cc1C#Cc1cnc2cccnn12 [Ponatinib] | 3.04 | 3.27 | 3.08 | 1.71
35 | CC(C)(C)c1cc(NC(=O)Nc2ccc(-c3cn4c(n3)sc3cc(OCCN5CCOCC5)ccc34)cc2)no1 [Quizartinib] | 3.06 | < 0.826 | 3.09 | 2.01
36 | COc1cc(Nc2ncc(F)c(Nc3ccc4c(n3)N(COP(=O)(O)O)C(=O)C(C)(C)O4)n2)cc(OC)c1OC [R788 disodium hexahydrate] | 3.46 | 3.21 | 2.99 | 2.5
37 | Cn1nccc1Nc1nccc(-c2ccn([C@H](CO)c3ccc(Cl)c(F)c3)c(=O)c2)n1 [Ravoxertinib] | 3.18 | 3.74 | > 4.4 | 3.44
38 | CNC(=O)c1cc(Oc2ccc(NC(=O)Nc3ccc(Cl)c(C(F)(F)F)c3)c(F)c2)ccn1 [Regorafenib] | 3.94 | 4.14 | 3.97 | 3.86
39 | CC1=C(/C=C/C(C)=C/C=C/C(C)=C/C(=O)O)C(C)(C)CCC1 [Retinoic acid] | > 4.4 | 0.928 | > 4.4 | 3.82
40 | COc1cc(OC)c(/C=C/S(=O)(=O)Cc2ccc(OC)c(NCC(=O)O)c2)c(OC)c1 [Rigosertib sodium] | 1.86 | 1.35 | 1.55 | 2.01
41 | C/C=C1\NC(=O)[C@H]2CSSCC/C=C/[C@H](CC(=O)N[C@H](C(C)C)C(=O)N2)OC(=O)[C@H](C(C)C)NC1=O [Romidepsin] | < 0.826 | < 0.826 | 0.852 | 0.997

Source: the supplement of paper PMC9549728
